# Values of other authors, collected in patent publication US20230255882A1, “LONG-LASTING RESORBABLE SUBCUTANEOUS IMPLANT WITH SUSTAINED RELEASE OF PRE-CONCENTRATED PHARMACOLOGICALLY ACTIVE SUBSTANCE IN POLYMER FOR THE TREATMENT OF PARKINSONS DISEASE” (priority 2020, published 2023).
# System: Parkinson's disease
# Details: intramuscular injection, 25 mg twice a week
compound,measurement,value
NC(=O)C1=CN([C@@H]2O[C@H](COP(=O)(O)OP(=O)(O)OC[C@H]3O[C@@H](n4cnc5c(N)ncnc54)[C@H](OP(=O)(O)O)[C@@H]3O)[C@@H](O)[C@H]2O)C=CC1 [NADPH],motor symptoms,significant improvement in motor symptoms
